# Source: ChEMBL document CHEMBL2417422, “Modulation of human neutrophils' oxidative burst by flavonoids” (Eur J Med Chem, 2013)
# Calls of active or inactive are those of the source. No cut-off for these calls is given here.
# How the values were obtained:
# [1] = Cytotoxicity against human neutrophils assessed as cell viability at 100 uM after 1 hr by trypan blue exclusion assay; type: cell-based, Neutrophil; conditions: read-out: Activity
# Neutrophil [2] = assay: Inhibition of oxidative burst in PMA-stimulated human neutrophils assessed as inhibition of ROS-induced luminol oxidation up to 100 uM incubated for 5 mins prior to PMA challenge by chemiluminescence assay; type: functional
# Neutrophil [3] = assay: Inhibition of oxidative burst in PMA-stimulated human neutrophils assessed as inhibition of H2O2-induced oxidation of amplex red incubated for 5 mins prior to PMA challenge by fluorescence assay; type: functional, cell-based
# Neutrophil [4] = assay: Inhibition of oxidative burst in PMA-stimulated human neutrophils assessed as inhibition of ROS-induced luminol oxidation at 25 uM incubated for 5 mins prior to PMA challenge by chemiluminescence assay; type: functional
# Neutrophil [5] = assay: Inhibition of oxidative burst in PMA-stimulated human neutrophils assessed as inhibition of superoxide anion radical-induced lucigenin oxidation incubated for 5 mins prior to PMA challenge by chemiluminescence assay; type: functional, cell-based
# Neutrophil [6] = assay: Inhibition of oxidative burst in PMA-stimulated human neutrophils assessed as inhibition of HOCl-induced oxidation of APF up to 100 uM after 6 mins by fluorescence assay; type: functional, cell-based
# [7] = molecular target: T1, Myeloperoxidase (Homo sapiens) (UniProt P05164); assay: Inhibition of MPO (unknown origin); conditions: concentration not given here
# T1 sequence (whole entry): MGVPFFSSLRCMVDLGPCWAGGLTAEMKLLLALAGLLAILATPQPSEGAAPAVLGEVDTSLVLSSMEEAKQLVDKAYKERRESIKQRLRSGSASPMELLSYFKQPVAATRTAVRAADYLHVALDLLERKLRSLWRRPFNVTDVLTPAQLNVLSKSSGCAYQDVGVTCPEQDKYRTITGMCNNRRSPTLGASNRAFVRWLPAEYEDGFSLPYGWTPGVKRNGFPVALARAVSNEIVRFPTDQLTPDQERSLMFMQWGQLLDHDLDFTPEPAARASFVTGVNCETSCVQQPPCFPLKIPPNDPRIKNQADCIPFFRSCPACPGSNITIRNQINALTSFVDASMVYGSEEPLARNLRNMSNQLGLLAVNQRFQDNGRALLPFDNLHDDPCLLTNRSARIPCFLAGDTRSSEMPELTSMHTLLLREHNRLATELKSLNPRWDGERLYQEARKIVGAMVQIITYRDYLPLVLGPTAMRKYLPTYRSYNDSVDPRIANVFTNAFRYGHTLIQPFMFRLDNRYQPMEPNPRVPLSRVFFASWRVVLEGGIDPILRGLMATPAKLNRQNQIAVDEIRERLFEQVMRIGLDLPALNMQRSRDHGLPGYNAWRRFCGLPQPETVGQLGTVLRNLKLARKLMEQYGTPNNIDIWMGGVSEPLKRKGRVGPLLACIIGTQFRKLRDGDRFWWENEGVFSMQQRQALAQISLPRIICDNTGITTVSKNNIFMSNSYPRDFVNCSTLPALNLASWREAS
# Neutrophil [8] = assay: Inhibition of oxidative burst in PMA-stimulated human neutrophils assessed as inhibition of ROS-induced luminol oxidation incubated for 5 mins prior to PMA challenge by chemiluminescence assay; type: functional, cell-based
# Neutrophil [9] = assay: Inhibition of oxidative burst in PMA-stimulated human neutrophils assessed as inhibition of HOCl-induced oxidation of APF after 6 mins by fluorescence assay; type: functional, cell-based; conditions: 0.1 h
# Neutrophil [10] = assay: Inhibition of oxidative burst in PMA-stimulated human neutrophils assessed as inhibition of H2O2-induced oxidation of amplex red up to 100 uM incubated for 5 mins prior to PMA challenge by fluorescence assay; type: functional
# Neutrophil [11] = assay: Inhibition of oxidative burst in PMA-stimulated human neutrophils assessed as inhibition of H2O2-induced oxidation of amplex red at 40 uM incubated for 5 mins prior to PMA challenge by fluorescence assay; type: functional
# Neutrophil [12] = assay: Inhibition of oxidative burst in PMA-stimulated human neutrophils assessed as inhibition of superoxide anion radical-induced lucigenin oxidation up to 100 uM incubated for 5 mins prior to PMA challenge by chemiluminescence assay; type: functional
SMILES,"viability at 1 h, 100 µM [1]",inhibition (INH) (Neutrophil [2]),inhibition (Neutrophil [3]),inhibition at 25 µM (Neutrophil [4]),IC50 (Neutrophil [5]),inhibition (Neutrophil [6]),inhibition [7],IC50 (Neutrophil [3]),IC50 (Neutrophil [8]),IC50 (Neutrophil [9]),inhibition (INH) (Neutrophil [10]),inhibition at 40 µM (Neutrophil [11]),inhibition (INH) (Neutrophil [12])
O=c1cc(-c2ccccc2)oc2cccc(O)c12 [5-HYDROXYFLAVONE],> 98%,<40%,inactive,30.1%,96 µM,–,–,–,–,–,–,–,–
COc1ccc(-c2cc(=O)c3c(O)cc(O)cc3o2)cc1 [ACACETIN],> 98%,<40%,inactive,26.7%,7 µM,inactive,–,–,–,–,–,–,–
O=C1c2c(O)cc(O)cc2O[C@H](c2ccc(O)c(O)c2)[C@H]1O [(+)-TAXIFOLIN],> 98%,–,–,–,15.5 µM,–,40%,41.3 µM,53.5 µM,15.3 µM,–,–,–
O=c1c(O)c(-c2ccc(O)c(O)c2)oc2cc(O)cc(O)c12 [QUERCETIN],> 98%,–,–,–,11.3 µM,–,–,8 µM,26 µM,0.7 µM,–,–,–
O=c1cc(-c2ccc(O)cc2)oc2cc(O)cc(O)c12 [APIGENIN],> 98%,–,–,–,7.7 µM,–,–,16.2 µM,24 µM,12.3 µM,–,–,–
O=c1cc(-c2ccccc2)oc2ccccc12 [FLAVONE],> 98%,<40%,inactive,–,57 µM,–,–,–,–,64.9 µM,–,–,–
O=c1cc(-c2ccc(O)c(O)c2)oc2ccccc12,> 98%,–,–,–,8.1 µM,–,–,3.2 µM,3 µM,0.9 µM,–,–,–
O=c1cc(-c2ccccc2)oc2cc(O)ccc12 [7-HYDROXYFLAVONE],> 98%,<40%,–,–,33 µM,–,–,–,–,–,<40%,–,–
O=c1cc(-c2ccc(O)c(O)c2)oc2cc(O)cc(O)c12 [LUTEOLIN],> 98%,–,–,–,9.5 µM,–,–,4 µM,9.3 µM,0.9 µM,–,–,–
O=c1cc(-c2ccccc2)oc2cc(O)cc(O)c12 [CHRYSIN],> 98%,–,inactive,–,9.59 µM,inactive,–,–,53 µM,–,–,–,–
O=c1cc(-c2cccc(O)c2)oc2cccc(O)c12,> 98%,–,–,–,32 µM,–,–,–,14.5 µM,–,<40%,20%,–
O=c1cc(-c2ccc(O)cc2)oc2ccccc12,> 98%,–,inactive,–,–,–,–,–,40.3 µM,–,–,–,<40%
O=c1cc(-c2cccc(O)c2)oc2ccccc12,> 98%,–,–,–,47 µM,–,–,–,24 µM,–,<40%,17%,–
NNC(=O)c1ccc(N)cc1,–,–,–,–,–,–,–,–,43.6 µM,30.6 µM,–,–,–
O=c1cc(-c2cccc(O)c2)oc2cc(O)cc(O)c12,> 98%,–,–,–,15.8 µM,–,–,–,10 µM,65.4 µM,<40%,–,–
O=c1cc(-c2ccc(O)c(O)c2)oc2cccc(O)c12,> 98%,–,–,–,4.9 µM,–,–,3.2 µM,1.6 µM,0.39 µM,–,–,–
COc1cc(-c2cc(=O)c3c(O)cc(O)cc3o2)ccc1O [CHRYSOERIOL],–,–,–,–,7.1 µM,–,–,8.6 µM,2.8 µM,0.4 µM,–,–,–
O=c1cc(-c2ccc(O)cc2)oc2cccc(O)c12,> 98%,–,–,–,67.8 µM,–,–,–,18 µM,–,<40%,20%,–
O=C1CC(c2ccc(O)c(O)c2)Oc2cc(O)cc(O)c21 (racemic),> 98%,–,–,–,15.5 µM,–,40%,4 µM,18 µM,1.4 µM,–,–,–
O=C1CC(c2ccc(O)cc2)Oc2cc(O)cc(O)c21 (racemic),> 98%,–,–,–,31 µM,–,–,–,51.4 µM,–,<40%,–,–
O=c1cc(-c2ccc(O)cc2)oc2cc(O)ccc12,> 98%,<40%,–,–,26.9 µM,–,–,–,–,–,<40%,–,–
O=c1cc(-c2cccc(O)c2)oc2cc(O)ccc12,> 98%,–,–,–,34.8 µM,–,–,79.6 µM,37.4 µM,–,–,–,–
O=c1cc(-c2ccc(O)c(O)c2)oc2cc(O)ccc12,> 98%,–,–,–,14.7 µM,–,–,3.7 µM,13.5 µM,5.2 µM,–,–,–
COc1ccc(-c2cc(=O)c3c(O)cc(O)cc3o2)cc1O [DIOSMETIN],–,–,–,–,15 µM,–,–,10.3 µM,3.6 µM,0.7 µM,–,–,–
COc1ccc(-c2cc(=O)c3c(O)cc(O)cc3o2)cc1OC,> 98%,–,–,–,16 µM,–,–,–,57.6 µM,3.33 µM,<40%,–,–
